System: CCL64 mink lung epithelial cells
Assay: CCL64 TGF-β bioassay (growth, crystal violet)
Format: cell-based
Conditions: human TGF-β1 and TGF-β2
Procedure: FIG. 1. Prevention of the growth inhibitory effects of recombinant and glioma-derived TGF-b1 and TGF-b2 by a TGF-β inhibitor (Compound No. 79 in Table 2). A. CCL64 cells were exposed to human recombinant TGF-b1 (filled symbols) or TGF-b2 (open symbols) (10 ng/ml) in the absence or presence of increasing concentrations of Comopund No. 79 for 72 h. B. CCL64 cells were maintained in serum-free medium containing heat-activated glioma cell SN (1:1) in the absence or presence of Compound No. 79 for 72 h. Growth was assessed by crystal violet assay (mean and SD, n=3).
The levels of bioactive TGF-β were determined using the CCL64 bioassay. Briefly, […] CCL64 cells were adhered to 96 well plates for 24 h, full medium was replaced by serum-free medium, and the cells were exposed to recombinant TGF-β1/2 or glioma cell culture supernatants diluted in serum-free medium for 72 h. Growth was assessed by crystal violet staining at 72 h. Glioma cell supernatants were harvested from confluent cultures maintained for 48 h in serum-free medium and heat-treated (5 min, 85° C.) to activate latent TGF-β (Leitlein et al., J. Immunol., 166:7238-7243 (2001)).

Substance | EC50 of growth inhibitory effect on CCL64 cells
TGF-β1: "Human recombinant TGF-β1 and TGF-β2 were obtained from Peprotech (London, UK)" | 0.5 ng/mL
TGF-β2: "Human recombinant TGF-β1 and TGF-β2 were obtained from Peprotech (London, UK)" | 0.5 ng/mL

Source: US20050245508A1, “Treatment of malignant gliomas with TGF-beta inhibitors” (SCIOS, Inc., priority 2003, published 2005)
